# Data taken from PubChem BioAssay (NCI).
#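 A five-concentration, 48-hour dose response in 96-well plates underlies each endpoint, interpolated linearly between surrounding concentrations. At the TGI there is no net growth.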
# How the values were obtained:
# Assay in all cases: inhibition of tumour cell growth, NCI panel, 48 h
# SNB-75 CNS = test system: SNB-75 CNS
# NCI-H460 lung = test system: NCI-H460 lung
# NCI-H522 lung = test system: NCI-H522 lung
# SR leukemia = test system: SR leukemia
# SF-268 CNS = test system: SF-268 CNS
# COLO 205 colon = test system: COLO 205 colon
# HOP-62 NSCLC = test system: HOP-62 NSCLC
# CCRF-CEM leukemia = test system: CCRF-CEM leukemia
# HCT-116 colon = test system: HCT-116 colon
# SF-295 CNS = test system: SF-295 CNS
# T-47D breast = test system: T-47D breast
# OVCAR-5 ovarian = test system: OVCAR-5 ovarian
# 786-0 renal = test system: 786-0 renal
# SK-MEL-28 melanoma = test system: SK-MEL-28 melanoma
# MDA-N = test system: MDA-N
Structure (SMILES),TGI (SNB-75 CNS) [µM],TGI (NCI-H460 lung) [µM],TGI (NCI-H522 lung) [µM],TGI (SR leukemia) [µM],TGI (SF-268 CNS) [µM],TGI (COLO 205 colon) [µM],TGI (HOP-62 NSCLC) [µM],TGI (CCRF-CEM leukemia) [µM],TGI (HCT-116 colon) [µM],TGI (SF-295 CNS) [µM],TGI (T-47D breast) [µM],TGI (OVCAR-5 ovarian) [µM],TGI (786-0 renal) [µM],TGI (SK-MEL-28 melanoma) [µM],TGI (MDA-N) [µM]
COC(=O)C1([C@@H]2C[C@@H](O)[C@]3(C)CC/C=C(\C)CCC[C@H](C)[C@H](O)[C@@H]2O3)CC1,17.8,> 100,> 100,95.3,> 100,> 100,> 100,> 100,> 100,> 100,> 100,> 100,> 100,> 100,> 100
COc1cccc2c1C(=O)C(=O)c1c-2oc(=O)c2cc(C)cc(OC)c12,55.7,> 75,26.5,> 75,41.8,> 75,32.4,> 75,> 75,> 75,> 75,> 75,> 75,> 75,38.7
O=C(NNC(=S)Nc1ccccc1)C12CC3CC(CC(C3)C1)C2,> 92.9,> 100,> 100,22.5,> 100,> 73.2,> 100,> 53.5,> 94.3,> 100,> 100,> 100,> 100,> 100,> 100
COC1Cc2c(C)c(OC(C)=O)c3cccnc3c2O1 (stereo not given),31.7,61.5,13.6,61.2,34,> 100,90.9,34.1,> 100,93.3,62.3,32.7,34.3,53,46.3
CC1=CC(C)C(C)N(CCNC(=O)Nc2ccccc2)c2ccccc21 (stereo not given),82.4,74.4,40.2,46.4,> 100,32.6,63.4,62.8,35,40.6,61.2,92.6,> 100,> 100,> 100
O=C1O/C(=C\c2ccc(O)c(Br)c2)C(c2ccc(O)cc2)=C1Cl,> 100,76.6,68.6,> 100,86.2,> 100,> 100,41.1,> 100,> 100,> 100,> 100,> 100,> 100,74.5
CC(C)(C)CN1[C@@H]2CCCC[C@H]2N(CC(C)(C)C)P1(=O)Cc1ccccc1,24.1,28.1,20.6,29.7,28.7,22.2,31.3,31.3,22.6,23.1,26.6,25.4,29.9,31.7,28.4
Cc1c(O)c(OC2OC(CO)C(O)C(O)C2O)cc2c1CC[C@@H]1C2(C)C(=O)C[C@]2(C)[C@@H]([C@@](C)(O)C(O)/C=C/C(C)(C)O)[C@H](O)C[C@@]12C (stereo not given in full),> 100,> 100,> 100,> 100,> 100,> 100,> 100,> 100,> 100,> 100,> 100,> 100,> 100,> 100,> 100
CCCCCCCC/C=C\CCCCCCCCNc1ccn(C2OC(COP(=O)(O)OC3CC(n4cc(F)c(=O)[nH]c4=O)OC3CO)C(O)C2O)c(=O)n1 (stereo not given),> 100,> 100,> 100,37.7,> 100,> 100,> 100,17.9,> 100,> 100,> 100,> 100,> 100,> 100,> 100
C=CCNC1=C2C[C@@H](C)C[C@@H](OC)[C@H](OC(=O)CN(C)C)[C@H](C)/C=C(\C)[C@@H](OC(N)=O)[C@H](OC)/C=C\C=C(/C)C(=O)NC(=CC1=O)C2=O,0.909,15.6,18.3,> 32,30.5,1.64,17.6,> 59.3,16.2,13.5,> 42.2,25.7,21,25.7,13.3
CCOC(=O)Cn1c(=O)c2nc(SC)sc2n(-c2ccc(C)cc2)c1=S,44.2,> 100,> 100,> 100,> 89.2,> 100,42.5,> 100,> 100,> 100,> 100,> 100,49.1,> 100,> 100
CC(=O)C1(c2ccccc2)CCN(Cn2sc3nc(C)cc(C)c3c2=O)CC1,57.3,34.1,29,> 100,> 100,33.8,> 100,> 100,52,> 100,> 100,39,30.6,93.1,41
CNC(=O)Nc1cc2c3c(c1)CCCN3CCC2,> 10,> 10,> 10,> 10,> 10,> 10,> 10,> 10,> 10,> 10,> 10,> 10,> 10,> 10,> 10
c1ccc(COCC23CCN(Cc4ccccc4)C(CC(OCc4ccccc4)C2)S3)cc1 (stereo not given),> 100,> 100,72.7,63.7,> 100,> 100,> 100,> 100,> 100,> 100,> 100,> 100,> 100,> 100,> 100
O=c1c2cccnc2[nH]c2ccc3scnc3c12,> 10,> 10,> 10,> 10,> 10,> 10,> 10,> 10,9.79,> 10,> 10,> 10,> 10,> 10,> 10
